Legend:
Assay type in all cases: in vivo
Conditions in all cases: dose 250 g/ha, fifteen days after treatment, damage vs control
Apera spica-venti [1] = assay: Herbicidal activity in post-emergence
Procedure: (§1) The herbicidal activity in post-emergence of the compounds of the invention was evaluated according to the following operating procedures.
(§2) The plant species of interest (weeds or crops) were seeded in vases having an upper diameter of 10 cm, a height of 10 cm and containing sandy earth. 10 vases were used for each plant species.
(§3) Water was added to each vase in a suitable quantity for the germination of the seeds. The vases were then divided into two groups, each containing 5 vases for each weed or crop.
(§4) The second group was only treated with a hydroacetonic solution containing acetone at 20% by volume and Tween 20 at 0.5% by weight, and was used as a comparison (control).
(§5) All the vases were kept under observation in a conditioned environment under the following environmental conditions: • temperature: 24° C.; • relative humidity: 60%; • photo-period: 16 hours; • light intensity: 12,000 lux.
(§6) Every two days the vases were uniformly watered to ensure a sufficient humidity degree for a good growth of the plants.

Lolium rigidum [2] = assay: Herbicidal activity in post-emergence
Procedure: as §1, §2, §3, §4, §5, §6

Echinochloa crusgalli [3] = assay: Herbicidal activity in post-emergence
Procedure: as §1, §2, §3, §4, §5, §6

Setaria viridis [4] = assay: Herbicidal activity in post-emergence
Procedure: as §1, §2, §3, §4, §5, §6

Alopecurus myosuroides [5] = assay: Herbicidal activity in post-emergence
Procedure: as §1, §2, §3, §4, §5, §6

Eleusine indica [6] = assay: Herbicidal activity in post-emergence
Procedure: as §1, §2, §3, §4, §5, §6

Digitaria sanguinalis [7] = assay: Herbicidal activity in post-emergence
Procedure: as §1, §2, §3, §4, §5, §6

Poa Annua [8] = assay: Herbicidal activity in post-emergence
Procedure: as §1, §2, §3, §4, §5, §6

Apera spica-venti [9] = assay: Herbicidal activity in pre-emergence
Procedure: (§7) The herbicidal activity in pre-emergence of the compounds of the invention was evaluated according to the following operating procedures.
as §2, §3
(§8) One day after seeding, the first group of vases was treated with a dispersion having the following composition:
(§9) Said dispersion was prepared by adding a compound of the present invention at the desired concentration to a hydroacetonic solution containing acetone at 20% by volume and Tween 20 at 0.5% by weight, with respect to the total weight of the dispersion.
(§10) The desired concentration of a compound of the present invention corresponds to the concentration necessary for allowing the application of an effective dose of said compound equal to 250 g/ha to the plant species of interest.
as §4, §5, §6

Lolium rigidum [10] = assay: Herbicidal activity in pre-emergence
Procedure: as §7, §2, §3, §8, §9, §10, §4, §5, §6

Echinochloa crusgalli [11] = assay: Herbicidal activity in pre-emergence
Procedure: as §7, §2, §3, §8, §9, §10, §4, §5, §6

Setaria viridis [12] = assay: Herbicidal activity in pre-emergence
Procedure: as §7, §2, §3, §8, §9, §10, §4, §5, §6

Alopecurus myosuroides [13] = assay: Herbicidal activity in pre-emergence
Procedure: as §7, §2, §3, §8, §9, §10, §4, §5, §6

Eleusine indica [14] = assay: Herbicidal activity in pre-emergence
Procedure: as §7, §2, §3, §8, §9, §10, §4, §5, §6

Digitaria sanguinalis [15] = assay: Herbicidal activity in pre-emergence
Procedure: as §7, §2, §3, §8, §9, §10, §4, §5, §6

Poa Annua [16] = assay: Herbicidal activity in pre-emergence
Procedure: as §7, §2, §3, §8, §9, §10, §4, §5, §6

## O=S(=O)(c1nnc(C(F)(F)F)s1)c1c(Cl)cccc1Cl [CR1, 2-(2,6-dichlorophenylsulfonyl)-5-(trifluoromethyl)-1,3,4-thiadiazole, reference compound]
Apera spica-venti [1]
  Herbicidal activity in post-emergence: 0 (0-10% of damage)
Lolium rigidum [2]
  Herbicidal activity in post-emergence: 0 (0-10% of damage)
Echinochloa crusgalli [3]
  Herbicidal activity in post-emergence: 0 (0-10% of damage)
Setaria viridis [4]
  Herbicidal activity in post-emergence: 0 (0-10% of damage)
Alopecurus myosuroides [5]
  Herbicidal activity in post-emergence: 0 (0-10% of damage)
Eleusine indica [6]
  Herbicidal activity in post-emergence: 0 (0-10% of damage)
Digitaria sanguinalis [7]
  Herbicidal activity in post-emergence: 0 (0-10% of damage)
Poa Annua [8]
  Herbicidal activity in post-emergence: 0 (0-10% of damage)
Apera spica-venti [9]
  Herbicidal activity in pre-emergence: 0 (0-10% of damage)
Lolium rigidum [10]
  Herbicidal activity in pre-emergence: 0 (0-10% of damage)
Echinochloa crusgalli [11]
  Herbicidal activity in pre-emergence: 0 (0-10% of damage)
Setaria viridis [12]
  Herbicidal activity in pre-emergence: 0 (0-10% of damage)
Alopecurus myosuroides [13]
  Herbicidal activity in pre-emergence: 0 (0-10% of damage)
Eleusine indica [14]
  Herbicidal activity in pre-emergence: 0 (0-10% of damage)
Digitaria sanguinalis [15]
  Herbicidal activity in pre-emergence: 0 (0-10% of damage)
Poa Annua [16]
  Herbicidal activity in pre-emergence: 0 (0-10% of damage)

## Cc1nnc([S+]([O-])Cc2c(Cl)cccc2Cl)s1 (stereo not shown) [Nr. 1, 2-[(2,6-dichlorobenzyl)-sulfinyl]-5-methyl-1,3,4-thiadiazole]
Apera spica-venti [1]
  Herbicidal activity in post-emergence: 5 (91% of damage-death of the plant)
Lolium rigidum [2]
  Herbicidal activity in post-emergence: 4 (71-90% of damage)
Echinochloa crusgalli [3]
  Herbicidal activity in post-emergence: 4 (71-90% of damage)
Setaria viridis [4]
  Herbicidal activity in post-emergence: 4 (71-90% of damage)
Alopecurus myosuroides [5]
  Herbicidal activity in post-emergence: 4 (71-90% of damage)
Eleusine indica [6]
  Herbicidal activity in post-emergence: 5 (91% of damage-death of the plant)
Digitaria sanguinalis [7]
  Herbicidal activity in post-emergence: 5 (91% of damage-death of the plant)
Poa Annua [8]
  Herbicidal activity in post-emergence: 5 (91% of damage-death of the plant)
Apera spica-venti [9]
  Herbicidal activity in pre-emergence: 5 (91% of damage-death of the plant)
Lolium rigidum [10]
  Herbicidal activity in pre-emergence: 4 (71-90% of damage)
Echinochloa crusgalli [11]
  Herbicidal activity in pre-emergence: 4 (71-90% of damage)
Setaria viridis [12]
  Herbicidal activity in pre-emergence: 4 (71-90% of damage)
Alopecurus myosuroides [13]
  Herbicidal activity in pre-emergence: 4 (71-90% of damage)
Eleusine indica [14]
  Herbicidal activity in pre-emergence: 5 (91% of damage-death of the plant)
Digitaria sanguinalis [15]
  Herbicidal activity in pre-emergence: 5 (91% of damage-death of the plant)
Poa Annua [16]
  Herbicidal activity in pre-emergence: 5 (91% of damage-death of the plant)

## Cc1nnc([S+]([O-])Cc2c(C(F)(F)F)nn(C)c2OCC(F)(F)F)s1 (stereo not shown) [Nr. 9]
Apera spica-venti [1]
  Herbicidal activity in post-emergence: 5 (91% of damage-death of the plant)
Lolium rigidum [2]
  Herbicidal activity in post-emergence: 4 (71-90% of damage)
Echinochloa crusgalli [3]
  Herbicidal activity in post-emergence: 5 (91% of damage-death of the plant)
Setaria viridis [4]
  Herbicidal activity in post-emergence: 4 (71-90% of damage)
Alopecurus myosuroides [5]
  Herbicidal activity in post-emergence: 5 (91% of damage-death of the plant)
Eleusine indica [6]
  Herbicidal activity in post-emergence: 5 (91% of damage-death of the plant)
Digitaria sanguinalis [7]
  Herbicidal activity in post-emergence: 5 (91% of damage-death of the plant)
Poa Annua [8]
  Herbicidal activity in post-emergence: 5 (91% of damage-death of the plant)
Apera spica-venti [9]
  Herbicidal activity in pre-emergence: 5 (91% of damage-death of the plant)
Lolium rigidum [10]
  Herbicidal activity in pre-emergence: 5 (91% of damage-death of the plant)
Echinochloa crusgalli [11]
  Herbicidal activity in pre-emergence: 5 (91% of damage-death of the plant)
Setaria viridis [12]
  Herbicidal activity in pre-emergence: 5 (91% of damage-death of the plant)
Alopecurus myosuroides [13]
  Herbicidal activity in pre-emergence: 5 (91% of damage-death of the plant)
Eleusine indica [14]
  Herbicidal activity in pre-emergence: 5 (91% of damage-death of the plant)
Digitaria sanguinalis [15]
  Herbicidal activity in pre-emergence: 5 (91% of damage-death of the plant)
Poa Annua [16]
  Herbicidal activity in pre-emergence: 5 (91% of damage-death of the plant)

## CCc1nnc([S+]([O-])Cc2c(C(F)(F)F)nn(C)c2OCC(F)(F)F)s1 (stereo not shown) [Nr. 121]
Apera spica-venti [1]
  Herbicidal activity in post-emergence: 5 (91% of damage-death of the plant)
Lolium rigidum [2]
  Herbicidal activity in post-emergence: 4 (71-90% of damage)
Echinochloa crusgalli [3]
  Herbicidal activity in post-emergence: 5 (91% of damage-death of the plant)
Setaria viridis [4]
  Herbicidal activity in post-emergence: 4 (71-90% of damage)
Alopecurus myosuroides [5]
  Herbicidal activity in post-emergence: 4 (71-90% of damage)
Eleusine indica [6]
  Herbicidal activity in post-emergence: 5 (91% of damage-death of the plant)
Digitaria sanguinalis [7]
  Herbicidal activity in post-emergence: 5 (91% of damage-death of the plant)
Poa Annua [8]
  Herbicidal activity in post-emergence: 5 (91% of damage-death of the plant)
Apera spica-venti [9]
  Herbicidal activity in pre-emergence: 5 (91% of damage-death of the plant)
Lolium rigidum [10]
  Herbicidal activity in pre-emergence: 5 (91% of damage-death of the plant)
Echinochloa crusgalli [11]
  Herbicidal activity in pre-emergence: 5 (91% of damage-death of the plant)
Setaria viridis [12]
  Herbicidal activity in pre-emergence: 5 (91% of damage-death of the plant)
Alopecurus myosuroides [13]
  Herbicidal activity in pre-emergence: 5 (91% of damage-death of the plant)
Eleusine indica [14]
  Herbicidal activity in pre-emergence: 5 (91% of damage-death of the plant)
Digitaria sanguinalis [15]
  Herbicidal activity in pre-emergence: 5 (91% of damage-death of the plant)
Poa Annua [16]
  Herbicidal activity in pre-emergence: 5 (91% of damage-death of the plant)
